≈ marks a conversion by molar mass, not a printed value. Where “and” joins values, the source holds several entries; their conditions need not be identical. Equal values may be shown once. Read-outs that look alike come from different tables or passages of the source.
Legend:
[1] = test system: S. aureus ATCC 33592 (MRSA strain); assay: Minimum Inhibition Concentration (MIC) assay; type: cell-based, methicillin-resistant Staphylococcus aureus (MRSA); conditions: Staphylococcus aureus, overnight at 37° C.
From the text: (§1) Various strains of microorganisms were used in the present disclosure, including Acinetobacter baumannii (ATCO 17978), Staphylococcus aureus (ATCO 29213), methicillin-resistant Staphylococcus aureus (MRSA) (ATCO 33592), Bacillus subtilis (ATCO 23857), and Escherichia Coli (ATCO 25922), which were purchased from American Type Culture Collection (ATCO), and cultured in Mueller-Hinton (MH) II agar plates or in MH broth.
(§2) Minimum Inhibition Concentration (MIC) Assay
(§3) MIC assay is a standardized assay performed in accordance with the guidelines issued by Clinical and Laboratory Standard Institute (CLSI) that measures the ability of certain agent and/or a surface in inhibiting the growth of a microorganism or killing the microorganism after being in contact with that microorganism for 24 hrs. Accordingly, MIC is the lowest concentration of an anti-bacterial agent and/or a surface that will inhibit the visible growth of a microorganism after overnight culture.
(§4) In practice, microorganisms grown on the agar plates were re-suspended in phosphate-buffered saline (PBS) to an OD 600 of 0.1. Suitable amount of this suspension was added to the appropriate broth media at a final concentration of 5×10^5 colony-forming units (CFU)/mL. Then, 98 μL of the broth+cell solution for each strain was added to each well of 96-well assay plate. Solutions of the present compounds were freshly prepared in DMSO and then serial diluted in 2-fold steps in DMSO, resulting in a final concentrations of 0.004-256 μg/mL when diluted 1:50 in test broth. The initial inoculum for each strain was serially diluted in PBS and plated on appropriate agar plate media to ensure that the assay contained the desired number of CFU. MIC assay plates were incubated overnight at 37° C. under aerobic conditions.

[2] = test system: B. subtilis ATCC 23857; assay: Minimum Inhibition Concentration (MIC) assay; type: cell-based; conditions: Bacillus subtilis, ATCC23857
From the text: as §1, §2, §3, §4

[3] = test system: S. aureus ATCC 29213; assay: Minimum Inhibition Concentration (MIC) assay; type: cell-based; conditions: Staphylococcus aureus, ATCC29213, overnight at 37° C.
From the text: as §1, §2, §3, §4

[4] = test system: E. coli ATCC 25922; assay: Minimum Inhibition Concentration (MIC) assay; type: cell-based, Escherichia Coli
From the text: as §1, §2, §3, §4

[5] = test system: A. baumannii 17978; assay: Minimum Inhibition Concentration (MIC) assay; type: cell-based, Acinetobacter baumannii
From the text: as §1, §2, §3, §4

[6] = target: E coli MurA (Escherichia coli, UniProt P0A749); assay: biochemical; conditions: IC50, MurA activity, E coli MurA 25 nM, UNAG 310 μM, PEP 620 μM, pH 7.6; 5 replicates
E coli MurA, sequence (P0A749 whole entry): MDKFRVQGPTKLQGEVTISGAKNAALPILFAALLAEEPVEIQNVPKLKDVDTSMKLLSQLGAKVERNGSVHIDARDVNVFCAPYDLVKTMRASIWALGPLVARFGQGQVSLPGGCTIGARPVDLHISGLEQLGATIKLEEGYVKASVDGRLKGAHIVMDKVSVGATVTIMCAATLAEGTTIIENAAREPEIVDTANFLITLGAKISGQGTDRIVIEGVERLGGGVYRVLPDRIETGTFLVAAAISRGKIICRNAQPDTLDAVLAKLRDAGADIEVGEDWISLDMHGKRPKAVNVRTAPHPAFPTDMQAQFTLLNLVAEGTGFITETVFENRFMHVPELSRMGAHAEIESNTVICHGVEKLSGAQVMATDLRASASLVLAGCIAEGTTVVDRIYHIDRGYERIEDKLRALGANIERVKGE
Protocol: (§5) In a standardized assay, MuraA enzymes were pre-incubated with the substrate UNAG and an inhibitor for 10 min at 37° C. To determine the influence of UNAG on the binding process, experiments were performed in the absence of UNAG during pre-incubation period. The reaction was initiated by the addition of the second substrate PEP, resulting in a total volume of […] with the following concentrations: E. Coli MurA or MRSA MurA 25 nM, UNAG 310 μM, PEP 620 μM, 50 mM HEPES, pH 7.6, DMSO 1% (v/v). The reaction was stopped after 60 min at 37° C. by adding 100 μL of Lanzetta reagent containing malachite green solution (0.045% (w/v)) and ammonium heptamolybdate (8.4% (v/v)) at a ratio of 3:1 and with 0.03% (w/v) Tergitol NP-40 as dye-stabilizing detergent. After 10 min, the absorbance at 620 nm was measured using a FlexStation 3 Microplate Reader (Molecular Devices). Finally, dose-response curves were generated by measuring the enzyme activity of five replicates at least 8 different compound concentrations. The resulting data were plotted and IC50 values indicating the concentration of the compound with a residual activity of 50% were determined.
(§6) Various types of MuraA enzymes, including those from E. Coli, wild type MRSA^WT, and MRSA^C119D mutant strain, were treated with any of the compounds 10d, 13d, or 14, as well as fosfomycin, in which MRSA^WT represents wild type MurA, and MRSA^C119D mutant strain represents MRSA strain in which the 119th amino acid residue, cysteine (C), is replaced by aspartic acid (D).

[7] = target: T1, MRSA MurA^C119D (Staphylococcus aureus, UniProt Q5HEA0, C119D); assay: MuraA assay (malachite green); type: biochemical, methicillin-resistant Staphylococcus aureus (MRSA); conditions: for IC50, MurA activity: MRSA MurA C119D mutant (fosfomycin resistant), 5 replicates
T1 sequence (Q5HEA0 1-421 C119D): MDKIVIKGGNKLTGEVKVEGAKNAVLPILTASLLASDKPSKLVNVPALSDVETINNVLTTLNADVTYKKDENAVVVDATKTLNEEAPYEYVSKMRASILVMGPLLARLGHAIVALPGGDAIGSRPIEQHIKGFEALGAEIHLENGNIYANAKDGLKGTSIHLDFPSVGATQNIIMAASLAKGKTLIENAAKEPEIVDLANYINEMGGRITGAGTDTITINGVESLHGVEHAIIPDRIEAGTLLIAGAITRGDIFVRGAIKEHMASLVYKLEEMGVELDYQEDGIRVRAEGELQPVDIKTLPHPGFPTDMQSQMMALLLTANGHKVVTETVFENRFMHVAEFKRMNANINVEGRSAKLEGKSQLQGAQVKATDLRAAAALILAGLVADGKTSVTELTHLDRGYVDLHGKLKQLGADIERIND
Protocol: as §5, §6

[8] = target: MRSA MurA^WT (Staphylococcus aureus, UniProt Q5HEA0); assay: MuraA assay (malachite green); type: biochemical, methicillin-resistant Staphylococcus aureus (MRSA); conditions: IC50, MurA activity, MRSA MurA wild type 25 nM, UNAG 310 μM, PEP 620 μM, pH 7.6; 5 replicates
Protocol: as §5, §6

[9] = test system: MRSA; assay: Transmission Electron Microscopy (TEM) of treated bacteria; type: cell-based, methicillin-resistant Staphylococcus aureus (MRSA)
Protocol: (§7) FIG. 1 are TEM photographs of MRSA (a-f) and A. baumannii (g-l) after being treated with the compounds of example 2 (128 μM) and fosfomycin (64 μM), in which (a) and (g) are un-treated S. aureus and A. baumannii; (b) and […] are those treated with the compound 10d, while (c) and (i) are treated with the compound of 13d; (d) and (j) are treated with the compound 14; (e) and (k) are treated with the compound 15; (f) and […] are treated with fosfomycin, in which CW, CM, IM, and OM respectively denote cell walls, cell membranes, inner membranes, and outer membranes; and
(§8) Transmission Electron Microscopy (TEM)
(§9) Exponential phase bacteria were treated with compounds at 4×MIC for 1 hr at 37° C. Then, the cells were washed and fixed and cut into thin slices and photographed using a Thin-layer TEM.

[10] = test system: A. baumannii; assay: as above; type: cell-based, Acinetobacter baumannii
Protocol: as §7, §8, §9

[11] = test system: Mice macrophage cell line RAW 264.2; assay: AlamaBlue cell viability assay; type: cell-based; conditions: 24 hrs
Protocol: Mice macrophage cell line RAW 264.2 was used in the present disclosure. RAW 264.2 cells were cultured in RPMI 1640 medium supplemented with 10% fetal calf serum (FCS) and maintained in an environment of 5% CO2/95% air at 37° C.
AlamaBlue Cell Viability Assay
The alamarBlue cell viability assay uses a non-toxic, water-soluble resazurin dye that yields a fluorescent signal and a colorimetric change when incubated with metabolically active cells. The assay is based on the findings that metabolically active cells (or viable cells) may keep the culture medium in a reduced state, whereas the non-viable cells will turn the culture medium into an oxidized state, thereby rendering the redox indicator in the medium (i.e., resazurin dye) to convert from its non-fluorescent oxidized form (blue color) to its fluorescent reduced form (pink color). Thus, the cell viability may be monitored by the fluorescent signal changes at 590 nm.
Cells were plated in 96-well plates at a density of 5,000 cells/100 μL/well for 24 hrs, then 10 μL AlamarBlue™ reagent (AbD Serotee Ltd., Oxford, UK) and various concentrations (i.e., 12.5, 25, 50 or 100 μM) of the test compound (e.g., the compound of example 2) were added, and incubated for 24 hrs. The plates were then placed at a fluorescence reader and fluorescent signals at 590 nm were measured.
In general, mice macrophages were treated with various concentrations of the compounds of example 2 for 24 hrs, the viability of cells were then analyzed by fluorescence analysis in accordance with procedures described in “Materials and Methods” section.

[12] = test system: gram-positive bacteria, including MRSA; assay: Growth inhibition (MIC), summary over strains; type: cell-based; conditions: for MIC: Staphylococcus aureus, MRSA, text summary for compounds 10d and 13d over gram-positive strains; for anti-bacteria activity: statement in words
From the text: as §2, §3, §4
In this example, the inhibitory effect of the isolated avenaciolide derivatives of example 2 (i.e., compounds 10d, 13d, 14, and 15) on the growth of gram-positive bacteria, including MRSA, were tested; and the results are summarized in Table 1.

[13] = B. subtilis ATCC 23857, overnight at 37° C., read-out: MIC
[14] = Escherichia coli, ATCC25922, overnight at 37° C., read-out: MIC
[15] = 17978, Acinetobacter baumannii, read-out: MIC for gram-negative bacteria
[16] = Acinetobacter baumannii, A. baumannii 17978, overnight at 37° C., read-out: MIC
[17] = 128 μg/mL (FIG. 1 legend: 128 μM), treated for an hr
[18] = 12.5 or 25 μM, fluorescence 590 nm
[19] = 50 or 100 μM, fluorescence 590 nm
[20] = fosfomycin 64 μg/mL, positive control

| Compound | MIC [1] | MIC [2, 13] | MIC [3] | MIC [4, 14] | MIC [5, 15] | MIC [5, 16] | IC50 [6] | IC50 [7] | IC50 [8] | cell wall structure in TEM photographs [9, 17] | cell wall structure in TEM photographs [10, 17] | growth (viability) of macrophages [11, 18] | growth (viability) of macrophages [11, 19] | MIC [12] | IC50, MurA activity [7] | anti-bacteria activity [12] | further results |
| --- | --- | --- | --- | --- | --- | --- | --- | --- | --- | --- | --- | --- | --- | --- | --- | --- | --- |
| C=C1C(=O)O[C@H]2C(=O)O[C@H](CCCCCCCC)[C@@H]12 [Compound 10d] | 32 µg/mL (≈ 120 µM) | 64 µg/mL (≈ 240 µM) | 16 µg/mL (≈ 60.1 µM) | 128 µg/mL (≈ 481 µM) | 256 µg/mL (≈ 961 µM) | 256 µg/mL (≈ 961 µM) | 0.9 to 10.8 µM and 0.9 µM | 21.5 µM | 8.3 µM | ruptured | not affected | slightly affected | significant growth inhibition | 16 to 32 µg/mL (≈ 60.1 to 120 µM) |  |  |  |
| C=C(C(=O)OC)[C@@H]1[C@@H](CCCCCCCC)OC(=O)[C@@H]1O [Compound 13d] | 16 µg/mL (≈ 53.6 µM) | 32 µg/mL (≈ 107 µM) | 32 µg/mL (≈ 107 µM) | 128 µg/mL (≈ 429 µM) | 256 µg/mL (≈ 858 µM) | 256 µg/mL (≈ 858 µM) | 0.9 to 10.8 µM and 2.8 µM | 7.9 µM | 6.7 µM | ruptured | not affected | slightly affected | significant growth inhibition | 16 to 32 µg/mL (≈ 53.6 to 107 µM) |  |  |  |
| C=C(C(=O)O)[C@@H]1[C@@H](CCCCCCCC)OC(=O)[C@@H]1O [Compound 14] | 256 µg/mL (≈ 900 µM) | 256 µg/mL (≈ 900 µM) | 256 µg/mL (≈ 900 µM) |  |  |  | 0.9 to 10.8 µM and 10.8 µM |  | ~71 µM and 71 µM | slightly affected | completely unaffected | slightly affected | significant growth inhibition |  | in-effective and No | neither compound 14, nor compound 15 possessed any anti-bacteria activity | MIC ([4]; overnight at 37° C.): no; MIC ([5]; A. baumannii 17978, overnight at 37° C.): no |
| CCCCCCCC[C@H]1OC(=O)[C@@H]2OC(=O)[C@@H](C)[C@H]12 [Compound 15] |  |  |  |  |  |  |  |  |  | neither MRSA nor A. baumannii was affected | neither MRSA nor A. baumannii was affected |  |  |  |  | neither compound 14, nor compound 15 possessed any anti-bacteria activity | growth (viability) of macrophages ([11]; various concentrations (12.5, 25, 50 or 100 μM)): completely un-affected |
| C[C@@H]1O[C@@H]1P(=O)(O)O [fosfomycin, reference compound] | 64 µg/mL (≈ 464 µM) |  | 4 µg/mL (≈ 29 µM) | 64 µg/mL (≈ 464 µM) |  |  | 0.4 µM |  | 1.6 µM |  |  |  |  |  | failed to suppress and No |  | MIC [2]: 128 µg/mL (≈ 927 µM); MIC ([5]; Acinetobacter baumannii, 17978): 256 µg/mL (≈ 1850 µM); cell wall structure in TEM photographs [9, 20]: ruptured; cell wall structure in TEM photographs [10, 20]: ruptured |

Source: patent publication US20160297829A1, “METHOD FOR PRODUCING AVENACIOLIDES AND USES THEREOF” (Academia Sinica, priority 2015, published 2016)
